Data set [1] has as its system UNCN3T cells. In words: Cytokine release (ELISA) in response to inhaled drugs, UNCN3T. Here is the method:
SPOC1 or UNCN3T cells were seeded onto 24-well tissue culture treated plates, pre-coated with a 1/20 dilution of Geltrex™. Cells were seeded at 5 × 10^4 cells/well and grown to confluence in the appropriate maintenance medium. The cells were washed four times (20 min per wash) with TB appropriate to each cell line after which the cells were incubated for 30 min at 37 °C 5% CO2/95% air in control or drug solutions prepared in the appropriate transport buffer. […] Samples from UNCN3T cells (human origin) were analysed for IL-6 and IL-8. Cytokines and mucins were quantified using ELISAs (Legend Max, BioLegend San Diego, CA) according to the manufacturer’s instructions and ELLA respectively.

In data set [2] the test system is Calu-3 cells. In words: Enhancement of mucin secretion using AMP-PNP (Secretagogue model), ELLA, Calu-3. As to conditions: Calu-3, AMP-PNP 100 μM, apical. The format is cell-based, human. Here is the method:
Cells cultured on inserts were arbitrarily divided into two groups termed 'low mucus' and 'high mucus'. […] Plates were kept on a shock-absorbing foam pad to prevent inadvertent mechanical stimulation of mucin secretion. […] Washes were stored at 4 °C until mucin secretion could be determined using an ELLA (on the day of treatment). At 10, 20 and 30 min, three further washes were performed and the average mucin content used to establish baseline mucin secretion. […] Each AMP-PNP/TB apical solution was changed (“like for like”) at 10-minute intervals. […] Wells were then washed three times with phosphate buffered saline (PBS) containing 0.05 % v/v Tween, 0.5 % w/v bovine gelatin type B (Sigma Aldrich), and blocked by incubation with PBS containing 1.0 % w/v gelatin at 37 °C for 1 h. […] Wells with samples from UNC[…] cells were incubated with biotinylated-Helix pomatia agglutinin prepared in the blocking solution. These wells were then washed before incubation with HRP-labelled streptavidin. […] The absorbance at 492 nm was measured using an Ascent MultiskanTM plate reader (Thermo Fisher Scientific). The absorbance of the samples was compared with known mucin standards, purified by two rounds of density gradient ultracentrifugation, as described by […] et al., from the sputum of a volunteer with chronic obstructive pulmonary disease. […]

Data set [3] concerns UNCN3T cells. In words: TEER of UNCN3T cells before and after AMP-PNP. As to conditions: AMP-PNP 100 μM.
For data set [4], the system named is UNCN3T cells. In words: Enhancement of mucin secretion using AMP-PNP (Secretagogue model), ELLA, UNCN3T. It counts as cell-based, human. As to the method: Cells cultured on inserts were arbitrarily divided into two groups termed 'low mucus' and 'high mucus'. […] Plates were kept on a shock-absorbing foam pad to prevent inadvertent mechanical stimulation of mucin secretion. […] Washes were stored at 4 °C until mucin secretion could be determined using an ELLA (on the day of treatment). At 10, 20 and 30 min, three further washes were performed and the average mucin content used to establish baseline mucin secretion. […] Each AMP-PNP/TB apical solution was changed (“like for like”) at 10-minute intervals. […] Wells were then washed three times with phosphate buffered saline (PBS) containing 0.05 % v/v Tween, 0.5 % w/v bovine gelatin type B (Sigma Aldrich), and blocked by incubation with PBS containing 1.0 % w/v gelatin at 37 °C for 1 h. […] Wells with samples from UNC[…] cells were incubated with biotinylated-Helix pomatia agglutinin prepared in the blocking solution. These wells were then washed before incubation with HRP-labelled streptavidin. Finally, plates containing samples from all cell lines were washed repeatedly and developed by the addition of substrate solution which consisted of o-phenylene diamine (Sigma […] tablet) prepared according to manufacturer's instructions, for 3 min at room temperature, after which the reaction was terminated by the addition of 20% (v/v) H2SO4. The absorbance at 492 nm was measured using an Ascent MultiskanTM plate reader (Thermo Fisher Scientific). The absorbance of the samples was compared with known mucin standards, purified by two rounds of density gradient ultracentrifugation, as described by […] et al., from the sputum of a volunteer with chronic obstructive pulmonary disease. Ethical approval was obtained from the University of Brighton School of Pharmacy and Biomolecular Sciences Ethics Committee, under reference PABSREC 0509, and informed consent was obtained from the volunteer.

Data set [5] relates to UNCN3T cells. In words: Mucin secretion (ELLA) in response to inhaled drugs, UNCN3T on Geltrex-coated plastic. The format is cell-based, human. Here is the method:
Wells were then washed three times with phosphate buffered saline (PBS) containing 0.05 % v/v Tween, 0.5 % w/v bovine gelatin type B (Sigma Aldrich), and blocked by incubation with PBS containing 1.0 % w/v gelatin at 37 °C for 1 h. […] Wells with samples from UNC[…] cells were incubated with biotinylated-Helix pomatia agglutinin prepared in the blocking solution. These wells were then washed before incubation with HRP-labelled streptavidin. Finally, plates containing samples from all cell lines were washed repeatedly and developed by the addition of substrate solution which consisted of o-phenylene diamine (Sigma […] tablet) prepared according to manufacturer's instructions, for 3 min at room temperature, after which the reaction was terminated by the addition of 20% (v/v) H2SO4. The absorbance at 492 nm was measured using an Ascent MultiskanTM plate reader (Thermo Fisher Scientific). The absorbance of the samples was compared with known mucin standards, purified by two rounds of density gradient ultracentrifugation, as described by […] et al., from the sputum of a volunteer with chronic obstructive pulmonary disease. Ethical approval was obtained from the University of Brighton School of Pharmacy and Biomolecular Sciences Ethics Committee, under reference PABSREC 0509, and informed consent was obtained from the volunteer.

[6] abbreviates: UNCN3T control wells treated with 100 μM AMP-PNP at 100 min, by 120 min, data not shown.

The structures appear in SMILES notation.

With `O=S(=O)([O-])[O-].[O]=[V+2]` [VOSO4, Vanadium (IV) oxide sulfate], in data set [1], the “IL-6 release, fold that of culture medium” value worked out at 66 fold. The compound further came in with an IL-6 release in data set [1] (VOSO4 20 μg mL^−1, 30 min, medium alone 1.9 ± 0.3) of 124.0 ± 6.5 pg/mL. The IL-8 release in data set [1] (VOSO4 20 μg mL^−1, 30 min, medium alone 12.5 ± 0.6) was determined as 251.1 ± 14.5 pg/mL.
As for `Nc1ncnc2c1ncn2[C@@H]1O[C@H](COP(=O)([O-])OP(=O)([O-])NP(=O)([O-])[O-])[C@@H](O)[C@H]1O.[Li+].[Li+].[Li+].[Li+]` [AMP-PNP, adenylyl-imidodiphosphate, tetralithium salt], the figures for the “Effect on quantity of mucin secreted” value in data set [2] and in data set [2] (listed as adenylyl-imidodiphosphate) were “no significant increase” and “not”, respectively. Also, the “Effect upon TEER” value in data set [3] is given as “no discernible effect”. Moreover, the “Mean TEER after treatment” value in data set [3] (before treatment 229 ± 20) is listed as 219 ± 19 Ω.cm^2. Besides, the “Fold increase in mucin secretion” value in data set [4] (setting [6]) is recorded as 1.5 fold; in data set [4] (UNCN3T, AMP-PNP 100 μM, vs baseline), 2 fold. In addition, the “Mucin level after AMP-PNP” value in data set [4] (setting [6]) was determined as 4.34 ± 0.83 ng/well; in data set [4] (UNCN3T, AMP-PNP 100 μM, baseline 2.91 ± 0.92) it was 5.44 ± 1.63 ng/well. Also, the Mucin secretion in data set [5] (UNCN3T on Geltrex-coated plastic, AMP-PNP 100 μM, 30 min, medium alone 0.94 ± 0.04) was 3.22 ± 0.24 ng/well.
In the case of `CCCC1O[C@@H]2C[C@H]3[C@@H]4CCC5=CC(=O)C=C[C@]5(C)[C@H]4[C@@H](O)C[C@]3(C)[C@]2(C(=O)CO)O1` (some centres unmarked) [budesonide], the “Effect on IL-8 release” value in data set [1] (20 μM, 30 min) is listed as “significantly increased”. The “Effect on mucin secretion” value in data set [5] (UNCN3T, inhaled drugs, vs culture medium alone) is recorded as “no effect”.

The values are drawn from paper PMC8422164, “A comparison of three mucus-secreting airway cell lines (Calu-3, SPOC1 and UNCN3T) for use as biopharmaceutical models of the nose and lung” (European Journal of Pharmaceutics and Biopharmaceutics, 2021).
